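Where inhibition never reached the appropriate level, the endpoint shown equals the highest concentration tested. Otherwise, values were interpolated linearly from a five-concentration, 48-hour dose response in 96-well plates. GI50: concentration for 50% inhibition of growth. The concentration for full growth arrest is given as TGI.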 Bounds are passed on as bounds.

Among the test systems are A549 NSCLC; EKVX NSCLC; HL-60(TB) leukemia; K-562 leukemia; MDA-MB-435; SNB-75 CNS; SW-620 colon; SF-539 CNS; SNB-19 CNS; SR leukemia; NCI-H522 lung.
What all share (assay): DTP human tumour cell line panel, 48 h

For the molecule `Cn1c(=O)c2[nH]c(Nc3cccc(Cl)c3)nc2n(C)c1=O`, the TGI in the assay on A549 NSCLC, in the assay on EKVX NSCLC, with HL-60(TB) leukemia, in the assay with K-562 leukemia, in the assay with MDA-MB-435 and with SNB-75 CNS was above 10 µM throughout. Further, in the assay with SW-620 colon, the TGI is above 10 µM.
Regarding `COc1ccccc1Cn1c2c(c3cc(O)ccc31)C(=O)c1ccccc1C2=O`, the TGI with A549 NSCLC was above 100 µM; in the assay with HL-60(TB) leukemia, above 100 µM; with K-562 leukemia, above 100 µM; in the assay with MDA-MB-435, above 100 µM; in the assay on SF-539 CNS, 57.6 µM; in the assay on SNB-19 CNS, above 100 µM. Besides, the TGI is 58.8 µM in the assay with SNB-75 CNS, above 100 µM in the assay with SR leukemia and above 100 µM with SW-620 colon.
In the case of `CCCC/C=C1\CCC(CN2CCCC2)C1=O` (centres undefined), the TGI is 40.3 µM in the assay with A549 NSCLC; 31.4 µM in the assay with HL-60(TB) leukemia; 11.1 µM in the assay on K-562 leukemia; 29.8 µM in the assay with SF-539 CNS; 48.9 µM with SNB-19 CNS; 32.4 µM in the assay with SNB-75 CNS. Moreover, the TGI worked out at 24.5 µM with SR leukemia and 4.9 µM in the assay on SW-620 colon.
Regarding `C/C(=C\CO)CC[C@@H]1[C@@]2(C)CCCC(C)(C)[C@@H]2CC[C@@]1(C)O`, the TGI in the assay with A549 NSCLC worked out at 92.7 µM; in the assay with EKVX NSCLC it was 51.5 µM; in the assay on HL-60(TB) leukemia, 45.7 µM; with K-562 leukemia, 34.7 µM; in the assay with MDA-MB-435 it was 34.6 µM; in the assay on NCI-H522 lung, 31.4 µM. Moreover, the TGI in the assay with SF-539 CNS is 32.4 µM; in the assay on SNB-19 CNS, 42.9 µM; in the assay on SNB-75 CNS, 34.7 µM; with SW-620 colon, 50.5 µM.
Regarding `O=c1cccc2n1CC1CNCC2C1` (centres undefined), the TGI in the assay on A549 NSCLC, with EKVX NSCLC, in the assay on HL-60(TB) leukemia, in the assay with K-562 leukemia, in the assay on MDA-MB-435 and in the assay on SF-539 CNS was above 100 µM throughout. Besides, the TGI in the assay with SNB-19 CNS, with SNB-75 CNS and with SW-620 colon was above 100 µM in each case.
For `NC(=O)c1ncn(C2OC(CO)C(O)C2O)c1NC(=S)NC(=O)c1ccccc1` (centres undefined), the concentration for total growth inhibition (TGI) in the assay with A549 NSCLC, in the assay with EKVX NSCLC, with HL-60(TB) leukemia, in the assay with K-562 leukemia, in the assay on NCI-H522 lung and in the assay with SF-539 CNS was above 100 µM in each case. Further, the TGI in the assay on SNB-19 CNS, with SNB-75 CNS, in the assay on SR leukemia and in the assay on SW-620 colon was above 100 µM throughout.
`Cc1ccc(S(=O)(=O)N2CCc3cc(O)c([N+](=O)[O-])cc32)cc1`: the TGI with A549 NSCLC, with HL-60(TB) leukemia, in the assay with MDA-MB-435, in the assay on NCI-H522 lung, in the assay with SF-539 CNS and with SNB-19 CNS was above 100 µM each time. Further, the TGI with SNB-75 CNS and in the assay with SW-620 colon was above 100 µM each time.
`O=C(/C=C/CC(O)(c1ccccc1)c1ccccc1)Nc1ccccc1Cl`: the TGI in the assay with EKVX NSCLC, in the assay with HL-60(TB) leukemia, in the assay on K-562 leukemia, in the assay with NCI-H522 lung, in the assay on SNB-19 CNS and with SNB-75 CNS was above 100 µM each time. Further, the TGI with SR leukemia and in the assay with SW-620 colon was above 100 µM in each case.
For `C[C@@](Br)(C(=O)O)[C@H](Br)C(=O)O`, the TGI with A549 NSCLC, in the assay on EKVX NSCLC, with HL-60(TB) leukemia, in the assay with K-562 leukemia, in the assay on MDA-MB-435 and in the assay with SNB-19 CNS was above 100 µM in each case. Moreover, the TGI with SNB-75 CNS and with SW-620 colon was above 100 µM throughout.
Take `O=C1CN(c2ccccc2)C(=O)C1C(=O)Nc1ccc(Cl)c(Cl)c1` (centres undefined): the TGI with A549 NSCLC is 15.7 µM; with HL-60(TB) leukemia it was 9.66 µM; in the assay with K-562 leukemia it was 8.88 µM; in the assay with NCI-H522 lung it was 6.48 µM; in the assay with SF-539 CNS it was 16.3 µM; with SNB-19 CNS, 17.2 µM. Also, the TGI with SNB-75 CNS was determined as 19.2 µM; in the assay with SR leukemia, 5.87 µM; with SW-620 colon, 11.9 µM.
As to `COC(=O)[C@@H]1[C@H]2CC[C@]3(C)[C@@H](OC(C)=O)CC[C@H]3[C@@H]2CC[C@H]1C1(C)SCCS1`, the total growth inhibition concentration (TGI) in the assay on A549 NSCLC is 74.5 µM; in the assay on EKVX NSCLC, 74.4 µM; in the assay on HL-60(TB) leukemia, 36.8 µM; in the assay on K-562 leukemia, 94 µM; with MDA-MB-435 it was 35.3 µM; with NCI-H522 lung it was 56.7 µM. The TGI in the assay on SF-539 CNS, in the assay on SNB-19 CNS, in the assay on SNB-75 CNS and in the assay with SW-620 colon was above 100 µM throughout.
Consider `CC12CCC(=O)[C@@]1(C)CCCC2=O` (some centres undefined), for which the TGI in the assay with A549 NSCLC, in the assay with EKVX NSCLC, with HL-60(TB) leukemia, in the assay with K-562 leukemia, in the assay on NCI-H522 lung and with SF-539 CNS was above 100 µM each time. Besides, the TGI in the assay with SNB-19 CNS, in the assay with SR leukemia and in the assay with SW-620 colon was above 100 µM in each case.
For the molecule `CCc1ccc(OCc2ccccc2C(=O)Nc2ccc3nc(C)cc(N)c3c2)cc1`, the GI50 was 1.56 µM in the assay with A549 NSCLC, 1.43 µM with MDA-MB-435, 1.59 µM with SF-539 CNS and 1.28 µM in the assay on SNB-75 CNS. For the same molecule, the TGI in the assay with A549 NSCLC turned out to be 3.27 µM; with MDA-MB-435, 2.77 µM; in the assay on SF-539 CNS, 3.04 µM; in the assay on SNB-75 CNS, 2.59 µM.
Take `COc1cccc(Nc2nc3c([nH]2)c(=O)n(C)c(=O)n3C)c1`: the TGI with A549 NSCLC, in the assay with EKVX NSCLC, in the assay with HL-60(TB) leukemia, with K-562 leukemia, in the assay with MDA-MB-435 and in the assay with SNB-75 CNS was above 10 µM each time. In addition, the TGI in the assay on SR leukemia and in the assay with SW-620 colon was above 10 µM each time.
For `O=c1ccn([C@@H]2C=C(CO)[C@@H](O)[C@H]2O)c(=O)[nH]1`, the TGI with A549 NSCLC was above 625 µM; in the assay on HL-60(TB) leukemia, above 625 µM; in the assay with NCI-H522 lung, above 625 µM; in the assay with SF-539 CNS, above 625 µM; with SNB-19 CNS, above 625 µM; in the assay with SNB-75 CNS, 431 µM. The same molecule gave a concentration for total growth inhibition (TGI) in the assay on SW-620 colon above 625 µM.
As for `Cc1cccc2c(N)c3cccc(C(=O)NCC[N+](C)(C)[O-])c3nc12`, the TGI was above 100 µM in the assay on A549 NSCLC; 87.4 µM in the assay with EKVX NSCLC; above 100 µM in the assay with HL-60(TB) leukemia; above 100 µM in the assay on K-562 leukemia; 41.5 µM with MDA-MB-435; 36.7 µM in the assay on SF-539 CNS. For the same molecule, the figures for the total growth inhibition concentration (TGI) with SNB-19 CNS, in the assay with SNB-75 CNS and in the assay on SW-620 colon were above 100 µM, 9.47 µM and above 100 µM, respectively.
On to `COc1ccc(CCn2ccc(=O)c(O)c2C)cc1OC`, for which the TGI is above 100 µM in the assay with A549 NSCLC; above 100 µM with EKVX NSCLC; 81.9 µM with HL-60(TB) leukemia; above 100 µM in the assay with K-562 leukemia; above 100 µM in the assay on MDA-MB-435; 73.9 µM in the assay on SF-539 CNS. Besides, the TGI in the assay with SNB-19 CNS, in the assay on SR leukemia and with SW-620 colon was above 100 µM in each case.
Take `CC(C)(C)[Si](C)(C)OC1CCOC1(O)c1ccccn1` (centres undefined): the TGI with A549 NSCLC, with EKVX NSCLC, in the assay on HL-60(TB) leukemia, with K-562 leukemia, with MDA-MB-435 and with NCI-H522 lung was above 100 µM throughout. Further, the total growth inhibition concentration (TGI) in the assay with SF-539 CNS, in the assay on SNB-19 CNS, with SNB-75 CNS and with SW-620 colon was above 100 µM in each case.
On to `O=C(O)CCSc1ncnc2nc[nH]c12`, for which the TGI in the assay with A549 NSCLC, with EKVX NSCLC, in the assay on HL-60(TB) leukemia, in the assay on K-562 leukemia, with MDA-MB-435 and in the assay with NCI-H522 lung was above 100 µM in each case. Also, the TGI in the assay on SF-539 CNS, in the assay with SNB-19 CNS and in the assay on SW-620 colon was above 100 µM in each case.
With `O/N=C/[C@H]1COC2(CCCCC2)O1`, the TGI in the assay on A549 NSCLC, in the assay on EKVX NSCLC, in the assay on K-562 leukemia, with MDA-MB-435, with SNB-19 CNS and in the assay on SNB-75 CNS was above 100 µM in each case. The molecule further gave a TGI in the assay on SW-620 colon above 100 µM.
For the molecule `CC1=[N+]([O-])C2(CCCC2)N(O)C1(C)C`, the TGI with A549 NSCLC, in the assay on EKVX NSCLC, in the assay with HL-60(TB) leukemia, with K-562 leukemia, in the assay on MDA-MB-435 and in the assay on SF-539 CNS was above 100 µM each time. The TGI in the assay on SNB-19 CNS and in the assay with SW-620 colon was above 100 µM throughout.
Take `Nn1nnc2ccccc21`: the TGI in the assay with A549 NSCLC, with EKVX NSCLC, with HL-60(TB) leukemia, in the assay on K-562 leukemia, in the assay with MDA-MB-435 and with SNB-19 CNS was above 100 µM in each case. Further, the TGI in the assay with SNB-75 CNS, in the assay with SR leukemia and in the assay on SW-620 colon was above 100 µM throughout.
Regarding `CN(C)CN1C(=O)/C(=N\n2c(-c3ccncc3)n[nH]c2=S)c2ccccc21`, the TGI is above 100 µM in the assay on A549 NSCLC; above 100 µM with EKVX NSCLC; 37 µM in the assay on HL-60(TB) leukemia; above 100 µM with K-562 leukemia; 30.2 µM in the assay on MDA-MB-435; 45.1 µM in the assay with NCI-H522 lung. The TGI is 52.4 µM with SF-539 CNS, above 100 µM with SNB-19 CNS, above 100 µM in the assay with SNB-75 CNS and above 100 µM in the assay on SW-620 colon.

The term TGI denotes the concentration at which net growth stops. By GI50 is commonly meant the concentration that inhibits growth by half.
